According to patent US20150093451A1, “METHOD OF INCREASING ENERGY EXPENDITURE” (Reoxcyn Discoveries Group, Inc., priority 2007, published 2015):

Tested on: NRF2
Assay: Western Blot validation of NRF2 nuclear accumulation and extra-nuclear protein phosphorylation
Assay type: cell-based, human
Protocol: 8. A Western Blot analysis was done on extra-nuclear and intra-nuclear fractions, separated by differential centrifugation, of serum starved HMVEC-L cell cultures exposed to <1% of a composition of the invention compared with a positive hydrogen peroxide control to determine phosphorylation events (oxidant action) in the extra-nuclear fraction and NRF2 (antioxidant transcription) in the intra-nuclear fraction at 0, 30, 60, 90 and 120 min intervals.
HMVEC-L were treated with 1% of a composition of the invention, nuclear extracts were separated through centrifugal differentiation from the extra-nuclear cytosol at 30, 60 and 120 min and subjected to Western Blot analysis for NRF2. In the Western blot experiment the extra-nuclear fraction was probed for phosphorylated proteins using a combination of anti-phospho serine, threonine and tyrosine antibodies. Virtually all cellular processes are regulated by posttranslational modifications and protein phosphorylation is a prevalent mechanism. Observable changes in protein phosphorylation can lead to a mechanistic understanding of the cellular processes perturbed by compositions of the invention and provide a defined endpoint to better define dose-dependent regulation of cell function by compositions of the invention in vitro, as well as provide a potential candidate molecular marker that may be used to provide in vitro-in vivo correlates. […]

## OO [H2O2, Hydrogen peroxide]
HMVEC-L extra-nuclear fraction, 1% composition, H2O2 positive control
  phosphorylation of extra-nuclear protein: marked increase in the phosphorylation
HMVEC-L, 1% ASEA 30, 60, 120 min, H2O2 30 min
  NRF2 levels in nuclear extracts: did not increase nuclear NRF2 levels
